Data from patent US20260232767A1, “INTERLEUKIN-23 RECEPTOR ANTAGONIST PEPTIDES FOR USE IN THE TREATMENT OF PSORIASIS” (Janssen Pharmaceutica NV, priority 2023, published 2026).

System: subjects with moderate-to-severe plaque psoriasis
Assay: Safety, adverse events, Example 1
Details: 16-week study
Method: Adverse events were reported and followed by the investigator. Any clinically relevant changes occurring during the study were recorded. Any clinically significant abnormalities persisting at the end of the study/early withdrawal were followed by the investigator until resolution or until a clinically stable condition was reached if possible. The evaluations of safety and tolerability include: physical examinations, vital signs, electrocardiograms, clinical safety laboratory assessments, review of concomitant medication, pregnancy testing, suicidal ideation evaluation via the Columbia—Suicide Severity Rating Scale, and tuberculosis evaluation.
Safety was assessed among all randomized and treated participants who received at least 1 dose of study agent (partial or complete) according to the assigned treatment received during the study. This is also referred to as the safety analysis set.

## CC(=O)NCCCC[C@@H]1NC(=O)[C@H](Cc2c[nH]c3c(C)cccc23)NC(=O)[C@H]([C@@H](C)O)NC(=O)[C@H](CC(N)=O)NC(=O)[C@@H](NC(C)=O)C(C)(C)SSC(C)(C)[C@@H](C(=O)N[C@@H](Cc2ccc(OCCN)cc2)C(=O)N[C@@H](Cc2ccc3ccccc3c2)C(=O)NC2(C(=O)N[C@@H](CCC(=O)O)C(=O)N[C@@H](CC(N)=O)C(=O)N[C@@H](Cc3cccnc3)C(=O)N(C)CC(N)=O)CCOCC2)NC1=O [IL-23 receptor antagonist peptide, Ac-[Pen]*-N-T-[W(7-Me)]-[Lys(Ac)]-[Pen]*-Phe[4-(2-aminoethoxy)]-[2-Nal]-[THP]-E-N-[3-Pal]-Sarc-NH2 (*[Pen]-[Pen]* formdisulfidebond)]
25 mg BID
  COVID-19, subjects: (19.5%)
  Diarrhea, subjects: (4.9%)
  Discontinued study agent because of adverse events, subjects: (2.3%)
  Gastrointestinal disorders, subjects: (9.8%)
  Headache, subjects: (2.4%)
  Infections and infestations, subjects: (34.1%)
  Nasopharyngitis, subjects: (7.3%)
  Nervous system disorders, subjects: (4.9%)
  Respiratory, thoracic and mediastinal disorders, subjects: 0
  Subjects with 1 or more Adverse events: (48.8%)
  Upper respiratory tract infection, subjects: 0
25 mg QD
  COVID-19, subjects: (11.6%)
  Diarrhea, subjects: (4.7%)
  Discontinued study agent because of adverse events, subjects: (7.0%)
  Gastrointestinal disorders, subjects: (7.0%)
  Headache, subjects: 0
  Infections and infestations, subjects: (34.9%)
  Nasopharyngitis, subjects: (2.3%)
  Nervous system disorders, subjects: 0
  Respiratory, thoracic and mediastinal disorders, subjects: (2.3%)
  Subjects with 1 or more Adverse events: (46.5%)
  Upper respiratory tract infection, subjects: (7.0%)
50 mg QD
  COVID-19, subjects: (7.0%)
  Diarrhea, subjects: (9.3%)
  Discontinued study agent because of adverse events, subjects: (2.3%)
  Gastrointestinal disorders, subjects: (14.0%)
  Headache, subjects: (2.3%)
  Infections and infestations, subjects: (39.5%)
  Nasopharyngitis, subjects: (18.6%)
  Nervous system disorders, subjects: (7.0%)
  Respiratory, thoracic and mediastinal disorders, subjects: (2.3%)
  Subjects with 1 or more Adverse events: (60.5%)
  Upper respiratory tract infection, subjects: 0
100 mg BID
  COVID-19, subjects: (9.5%)
  Diarrhea, subjects: (2.4%)
  Discontinued study agent because of adverse events, subjects: 0
  Gastrointestinal disorders, subjects: (16.7%)
  Headache, subjects: (2.4%)
  Infections and infestations, subjects: (26.2%)
  Nasopharyngitis, subjects: (4.8%)
  Nervous system disorders, subjects: (4.8%)
  Respiratory, thoracic and mediastinal disorders, subjects: (4.8%)
  Subjects with 1 or more Adverse events: (61.9%)
  Upper respiratory tract infection, subjects: (4.8%)
100 mg QD
  COVID-19, subjects: (7.0%)
  Diarrhea, subjects: (2.3%)
  Discontinued study agent because of adverse events, subjects: 0
  Gastrointestinal disorders, subjects: (9.3%)
  Headache, subjects: (7.0%)
  Infections and infestations, subjects: (16.3%)
  Nasopharyngitis, subjects: (2.3%)
  Nervous system disorders, subjects: (7.0%)
  Respiratory, thoracic and mediastinal disorders, subjects: (7.0%)
  Subjects with 1 or more Adverse events: (44.2%)
  Upper respiratory tract infection, subjects: 0
  Deaths, MACE or malignancies: no deaths, MACE or malignancies
Combined doses
  COVID-19, subjects: (10.8%)
  Diarrhea, subjects: (4.7%)
  Discontinued study agent because of adverse events, subjects: (2.3%)
  Gastrointestinal disorders, subjects: (11.3%)
  Headache, subjects: (2.8%)
  Infections and infestations, subjects: (30.2%)
  Nasopharyngitis, subjects: (7.1%)
  Nervous system disorders, subjects: (4.7%)
  Respiratory, thoracic and mediastinal disorders, subjects: (3.3%)
  Subjects with 1 or more Adverse events: (52.4%)
  Upper respiratory tract infection, subjects: (2.4%)
Across treatment groups
  Dose dependence of occurrence of AEs: no evidence of dose-dependent increase
All treatment groups
  Tolerability: well-tolerated
